Laboratory results published in US9694027B2, “Pyrazole derivative and use thereof for medical purposes” (KISSEI PHARMACEUTICAL CO. LTD., priority 2012, dated 2017).

Columns and labels:
[1] = system: rat model of low-fiber diet-induced constipation; test: Rat model of low-fiber diet-induced constipation (Example 2)
Description: Compound 2 was weighed and was dissolved in distilled water at preparation concentrations of 3, 10 and 30 mg/mL as the free drug to prepare test compounds.
0.5% methylcellulose (0.5% MC) was used as a vehicle for preparation of lubiprostone. Lubiprostone was weighed and was suspended in 0.5% MC at preparation concentrations of 1, 3 and 10 mg/mL to prepare control substances.
Magnesium sulfate (MgSO4) (Wako pure chemical) was weighed and was dissolved in distilled water at a preparation concentrations of 200 mg/mL to prepare a positive control substance.
A soluble starch, sucrose and lactose monohydrate were weighed at a rate of 6:3:1 and were dissolved in distilled water which was approximately 80% of the amounts of preparation on heating, and then the mixture was added with distilled water to prepare 0.4 g/mL solution of mixed carbohydrate.
A low-fiber diet was prepared based on the literature (Kakino et al. BMC Complementary and Alternative Medicine 2010, 10: 68).
Rats were fed on the low-fiber diet for 1-2 weeks to induce constipation.
Compound 2 (3 mg/kg, 10 mg/kg or 30 mg/kg as free drug), lubiprostone (1 mg/kg, 3 mg/kg or 10 mg/kg), MgSO4 (2000 mg/kg) or a vehicle (distilled water: Control group 1, 0.5% MC: Control group 2) was administered orally at around 9 a.m. using a 1 mL glass syringe and a stomach tube. Then, 0.4 g/mL solution of mixed carbohydrate was administered orally at 2 mL/body to Control group 1 and the groups administered with Compound 2. Distilled water was administered to the normal feed group.
The sum of the fecal weights at the collection times was set as the fecal weight at 24 hours after the administration.
The statistical analysis was made by testing the uniformity of variance using Bartlett's method, and multiple comparison between Control group 1 and the group administered with Compound 2 or Control group 2 and the group administered with lubiprostone was made using Dunnett's method when variance was uniform respectively, and multiple comparison was made using Steel's method when variance was not uniform. In each case, significance level<5% was considered as significant difference.

healthy adult males = test: Multiple-dose study in healthy adult males (Example 4); format: in vivo, human
Description: Compound 2 at a dose of 2, 5, 10 or 20 mg (free drug equivalent), a placebo, or miglitol at a dose of 50 mg was repetitively administered orally once daily just immediately before breakfast on administration Days 1 and 13, and 3 times daily just immediately before every meal on administration Days 3 to 12 to healthy adult males. For the administration of Compound 2, tablets containing 1, 5 or 10 mg in free drug equivalent were used. The test period was set between administration Day 1 and Day 15. Frequencies of bowel movements were checked during consultation by a doctor, and the adverse events (gastrointestinal disorders) were defined when an abnormal finding (diarrhea or loose stool) was seen based on the stool form and the finding. In this regard, the frequencies of bowel movements in Table 8 show the daily means during fifteen days (time/day).

[2] = system: Loperamide-induced dog constipation model; test: Loperamide-induced dog constipation model (Example 1); format: in vivo; conditions: for Dry fecal weight within 24 hours after the administration / Wet fecal weight within 24 hours after the administration / Frequency of bowel movement within 24 hours after the administration: mean of 10 dogs; for Dry fecal weight within 24 hours after the administration: Control group 1.0, Normal group 47.1; for Wet fecal weight within 24 hours after the administration: Control group 2.8, Normal group 136.2; for Frequency of bowel movement within 24 hours after the administration: observation at 17, 21, 24 hours, Control group 0.2, Normal group 2.1
Description: Lubiprostone (TLC Pharma Chem) was weighed and was suspended in 0.5% methylcellulose at preparation concentrations of 0.05 and 0.35 mg/mL to prepare control substances.
Loperamide hydrochloride (Wako pure chemical) was weighed at 0.3, 0.5, 1.0, 2.0, 4.0 or 8.0 mg/kg for each animal and was filled into a gelatin capsule.
Loperamide hydrochloride which was filled into a gelatin capsule was orally administered to dogs (beagle, male, 13-14 months old, 10 dogs, Kitayama-labesu). The dosage was increased from 0.3 mg/kg, and was set at 2.0, 4.0 or 8.0 mg/kg based on the bowel movement condition of each dog.
Tests were performed as a full cross-over trial. More than 5-day washout period was provided between each test, and a recovery of stool form was identified, and then the next test was performed.
A gelatin capsule which was filled with loperamide hydrochloride was administered orally at around 9 a.m. on the first and second days in each test.
The stool form of feces was scored in seven categories based on Bristol Stool Form Scale. The collected feces were dried fully, and then the feces were weighed, and it was set as the dry fecal weight.

O=S(=O)([O-])[O-].[Mg+2] [MgSO4, Magnesium sulfate]
Watery stool ([1]; 2000 mg/kg): watery stool was reported | Fecal weight, effect of positive control ([1]; 2000 mg/kg oral): increase of the fecal weight was also shown | Fecal weight within 24 hours after the administration ([1]; 2000 mg/kg oral, positive control, n=4, Control group 1 0.53): 3.70 g

OCCN1C[C@H](O)[C@@H](O)[C@H](O)[C@H]1CO [Miglitol, miglitol, reference compound]
Daily frequency of bowel movement after the administration, Mean (healthy adult males; 50 mg, once daily Days 1 and 13, 3 times daily Days 3 to 12, daily mean during fifteen days, 8 subjects, Placebo 1.0): 1.0 time/day | Number of subject with gastrointestinal disorders: Abdominal pain (healthy adult males; multiple dose 50 mg, of 8 subjects, Placebo 0): 0 | Number of subject with gastrointestinal disorders: Diarrhea (healthy adult males; multiple dose 50 mg, of 8 subjects, Placebo 3): 2

CCCCC(F)(F)[C@@]1(O)CC[C@H]2[C@@H](CC(=O)[C@@H]2CCCCCCC(=O)O)O1 [lubiprostone, Lubiprostone, reference compound]
Wet fecal weight, dry weight and frequency of bowel movements versus Control group ([2]; 0.1 mg/kg or more, significance level <5%): significantly higher than in Control group | Dry fecal weight within 24 hours after the administration ([2]; 0.1 mg/kg oral): 8.3 g | Wet fecal weight within 24 hours after the administration ([2]; 0.1 mg/kg oral): 18.7 g | Frequency of bowel movement within 24 hours after the administration ([2]; 0.1 mg/kg oral): 0.9 time | Dry fecal weight within 24 hours after the administration ([2]; 0.7 mg/kg oral): 21.5 g | Wet fecal weight within 24 hours after the administration ([2]; 0.7 mg/kg oral): 55.4 g | Frequency of bowel movement within 24 hours after the administration ([2]; 0.7 mg/kg oral): 1.0 time | Increases of loose stool and diarrhea ([2]; all doses of this test): not observed | Dose dependence of wet fecal weight, dry weight and frequency of bowel movements ([2]; within 24 hours after oral administration): dose-dependently increased | Fecal weight within 24 hours after the administration ([1]; 1 mg/kg oral in 0.5% MC, n=5, Control group 2 0.58): 0.60 g | Fecal weight within 24 hours after the administration ([1]; 3 mg/kg oral in 0.5% MC, n=5, Control group 2 0.58): 0.95 g | Fecal weight within 24 hours after the administration ([1]; 10 mg/kg oral in 0.5% MC, n=5, Control group 2 0.58): 1.25 g | Fecal weight during 24 hours versus Control group ([1]; 10 mg/kg, versus Control group 2, significance level <5%): significantly higher than in each Control group | Dose dependence of fecal weight during 24 hours after the administration ([1]; oral): dose-dependently increased
